In ChEMBL document CHEMBL4190204, “Trichoderpyrone, a Unique Polyketide Hybrid with a Cyclopentenone-Pyrone Skeleton from the Plant Endophytic Fungus Trichoderma gamsii” (J Nat Prod, 2017) one finds IC50 data, which are given here for two compounds.

Common to all, as to assay type: functional, cell-based
In one assay the test system is HepG2. Briefly: Cytotoxicity against human HepG2 cells assessed as reduction in cell viability by MTT assay. On the technique in general: Formazan colour is commonly taken as a measure of viable cells.
The test system of a further assay is HeLa. Briefly: Cytotoxicity against human HeLa cells assessed as reduction in cell viability by MTT assay.
The test system of the next assay is A549. Briefly: Cytotoxicity against human A549 cells assessed as reduction in cell viability by MTT assay.

For orientation: IC50 means the concentration that inhibits the measured activity by half. Regarding `COc1cc([C@@H]2c3cc4c(cc3[C@@H](O[C@@H]3O[C@@H]5CO[C@@H](C)O[C@H]5[C@H](O)[C@H]3O)[C@H]3COC(=O)[C@H]23)OCO4)cc(OC)c1O` [ETOPOSIDE], the values for the IC50 in the assay on HepG2, in the assay with HeLa and in the assay with A549 were 16.1 µM, 15 µM and 16.6 µM, respectively.
Consider `C=C[C@]1(O)CC(N)=C([C@@H](C)c2c(O)cc(C)oc2=O)C1=O`, for which the IC50 in the assay on HepG2 was 30.8 µM; with HeLa it was 33.9 µM; in the assay with A549 it was 16.9 µM.
